# From patent US11459323B2, “Monocyclic β-lactam compound for treating bacterial infection” (MEDSHINE DISCOVERY INC., priority 2018, dated 2022)
# Read-outs that look alike come from different tables or passages of the source.
# Columns and labels:
# Experiment in all cases: MIC on clinically isolated bacteria
# Type in all cases: cell-based
# [1] = system: Acinetobacter baumannii C241
# Text: (§1) Twenty-five strains of clinically isolated Acinetobacter baumannii and twenty-seven strains of Pseudomonas aeruginosa were respectively selected and used to determine the minimum inhibitory concentration (MIC) of the compounds by micro-liquid dilution method according to the Institute of Clinical and Laboratory Standard (CLSI) requirements.
# [2] = system: Acinetobacter baumannii C251
# Text: as §1
# [3] = system: Acinetobacter baumannii C279
# Text: as §1
# [4] = system: Acinetobacter baumannii C283
# Text: as §1
# [5] = system: Acinetobacter baumannii C313
# Text: as §1
# [6] = system: Acinetobacter baumannii C315
# Text: as §1
# [7] = system: Acinetobacter baumannii C328
# Text: as §1
# [8] = system: Acinetobacter baumannii C330
# Text: as §1
# [9] = system: Acinetobacter baumannii C332
# Text: as §1
# [10] = system: Acinetobacter baumannii C333
# Text: as §1
# [11] = system: Acinetobacter baumannii C357
# Text: as §1
# [12] = system: Acinetobacter baumannii C390
# Text: as §1
# [13] = system: Acinetobacter baumannii C394
# Text: as §1
# [14] = system: Acinetobacter baumannii C395
# Text: as §1
# [15] = system: Acinetobacter baumannii C401
# Text: as §1
# [16] = system: Acinetobacter baumannii C402
# Text: as §1
# [17] = system: Acinetobacter baumannii C427
# Text: as §1
# Aeruginosa ATCC27853 = conditions: Pseudomonas aeruginosa
# Text: as §1
# [18] = system: Pseudomonas aeruginosa C745
# Text: as §1
# [19] = system: Pseudomonas aeruginosa C754
# Text: as §1
# [20] = system: Pseudomonas aeruginosa C755
# Text: as §1
# [21] = system: Pseudomonas aeruginosa C761
# Text: as §1
# [22] = system: Pseudomonas aeruginosa C762
# Text: as §1
# [23] = system: Pseudomonas aeruginosa M1
# Text: as §1
# [24] = system: Pseudomonas aeruginosa M4
# Text: as §1
# [25] = system: Pseudomonas aeruginosa W13
# Text: as §1
# [26] = system: Pseudomonas aeruginosa W19
# Text: as §1
# [27] = system: Pseudomonas aeruginosa W20
# Text: as §1
# [28] = system: Pseudomonas aeruginosa W21
# Text: as §1
# [29] = system: Pseudomonas aeruginosa W23
# Text: as §1
# [30] = system: Pseudomonas aeruginosa W24
# Text: as §1
# [31] = system: Pseudomonas aeruginosa W27
# Text: as §1
# [32] = system: Pseudomonas aeruginosa W28
# Text: as §1
# [33] = system: Pseudomonas aeruginosa W29
# Text: as §1
# [34] = system: Pseudomonas aeruginosa W32
# Text: as §1
# [35] = system: Pseudomonas aeruginosa W35
# Text: as §1
# [36] = system: Pseudomonas aeruginosa W42
# Text: as §1
# [37] = system: Pseudomonas aeruginosa W46
# Text: as §1
# [38] = system: Pseudomonas aeruginosa W47
# Text: as §1
# [39] = system: Pseudomonas aeruginosa W4
# Text: as §1
# [40] = system: Pseudomonas aeruginosa W9
# Text: as §1
# [41] = Acinetobacter baumannii C241, read-out: Minimum Inhibitory Concentration (MIC)
# [42] = Acinetobacter baumannii C251, read-out: Minimum Inhibitory Concentration (MIC)
# [43] = Acinetobacter baumannii C279, read-out: Minimum Inhibitory Concentration (MIC)
# [44] = Acinetobacter baumannii C283, read-out: Minimum Inhibitory Concentration (MIC)
# [45] = Acinetobacter baumannii C313, read-out: Minimum Inhibitory Concentration (MIC)
# [46] = Acinetobacter baumannii C315, read-out: Minimum Inhibitory Concentration (MIC)
# [47] = Acinetobacter baumannii C328, read-out: Minimum Inhibitory Concentration (MIC)
# [48] = Acinetobacter baumannii C330, read-out: Minimum Inhibitory Concentration (MIC)
# [49] = Acinetobacter baumannii C332, read-out: Minimum Inhibitory Concentration (MIC)
# [50] = Acinetobacter baumannii C333, read-out: Minimum Inhibitory Concentration (MIC)
# [51] = Acinetobacter baumannii C357, read-out: Minimum Inhibitory Concentration (MIC)
# [52] = Acinetobacter baumannii C390, read-out: Minimum Inhibitory Concentration (MIC)
# [53] = Acinetobacter baumannii C394, read-out: Minimum Inhibitory Concentration (MIC)
# [54] = Acinetobacter baumannii C395, read-out: Minimum Inhibitory Concentration (MIC)
# [55] = Acinetobacter baumannii C401, read-out: Minimum Inhibitory Concentration (MIC)
# [56] = Acinetobacter baumannii C402, read-out: Minimum Inhibitory Concentration (MIC)
# [57] = Acinetobacter baumannii C427, read-out: Minimum Inhibitory Concentration (MIC)
# [58] = Aeruginosa ATCC27853, read-out: MIC
smiles,measurement,setting,value
CC1(C)[C@H](NC(=O)/C(=N\O[C@@H](COc2ccc3c(c2)CN(C(=N)N(CCN)CCN)C3)C(=O)O)c2csc(N)n2)C(=O)N1OS(=O)(=O)O [Compound 45],MIC,[1]; [41],> 16 µg/mL
same,MIC,[2]; [42],16 µg/mL
same,MIC,[3]; [43],16 µg/mL
same,MIC,[4]; [44],16 µg/mL
same,MIC,[5]; [45],16 µg/mL
same,MIC,[6]; [46],16 µg/mL
same,MIC,[7]; [47],16 µg/mL
same,MIC,[8]; [48],16 µg/mL
same,MIC,[9]; [49],16 µg/mL
same,MIC,[10]; [50],16 µg/mL
same,MIC,[11]; [51],8 µg/mL
same,MIC,[12]; [52],16 µg/mL
same,MIC,[13]; [53],16 µg/mL
same,MIC,[14]; [54],8 µg/mL
same,MIC,[15]; [55],8 µg/mL
same,MIC,[16]; [56],8 µg/mL
same,MIC,[17]; [57],16 µg/mL
same,MIC,Aeruginosa ATCC27853; [58],2 µg/mL
same,MIC,[18]; read-out: MIC,> 16 µg/mL
same,MIC,[19]; read-out: MIC,4 µg/mL
same,MIC,[20]; read-out: MIC,4 µg/mL
same,MIC,[21]; read-out: MIC,8 µg/mL
same,MIC,[22]; read-out: MIC,> 16 µg/mL
same,MIC,[23]; read-out: MIC,4 µg/mL
same,MIC,[24]; read-out: MIC,0.25 µg/mL
same,MIC,[25]; read-out: MIC,4 µg/mL
same,MIC,[26]; read-out: MIC,8 µg/mL
same,MIC,[27]; read-out: MIC,16 µg/mL
same,MIC,[28]; read-out: MIC,4 µg/mL
same,MIC,[29]; read-out: MIC,4 µg/mL
same,MIC,[30]; read-out: MIC,16 µg/mL
same,MIC,[31]; read-out: MIC,16 µg/mL
same,MIC,[32]; read-out: MIC,> 16 µg/mL
same,MIC,[33]; read-out: MIC,16 µg/mL
same,MIC,[34]; read-out: MIC,16 µg/mL
same,MIC,[35]; read-out: MIC,2 µg/mL
same,MIC,[36]; read-out: MIC,4 µg/mL
same,MIC,[37]; read-out: MIC,8 µg/mL
same,MIC,[38]; read-out: MIC,16 µg/mL
same,MIC,[39]; read-out: MIC,2 µg/mL
same,MIC,[40]; read-out: MIC,16 µg/mL
CC1(C)[C@H](NC(=O)/C(=N\O[C@@H](COc2ccc3c(c2)CN(/C(=N\[C@@H]2CCCNC2)N[C@@H]2CCCNC2)C3)C(=O)O)c2csc(N)n2)C(=O)N1OS(=O)(=O)O [Compound 46],MIC,[1]; [41],4 µg/mL
same,MIC,[2]; [42],> 16 µg/mL
same,MIC,[3]; [43],4 µg/mL
same,MIC,[4]; [44],4 µg/mL
same,MIC,[5]; [45],4 µg/mL
same,MIC,[6]; [46],4 µg/mL
same,MIC,[7]; [47],4 µg/mL
same,MIC,[8]; [48],4 µg/mL
same,MIC,[9]; [49],4 µg/mL
same,MIC,[10]; [50],4 µg/mL
same,MIC,[11]; [51],4 µg/mL
same,MIC,[12]; [52],4 µg/mL
same,MIC,[13]; [53],4 µg/mL
same,MIC,[14]; [54],4 µg/mL
same,MIC,[15]; [55],4 µg/mL
same,MIC,[16]; [56],4 µg/mL
same,MIC,[17]; [57],4 µg/mL
same,MIC,Aeruginosa ATCC27853; [58],0.5 µg/mL
same,MIC,[18]; read-out: MIC,4 µg/mL
same,MIC,[19]; read-out: MIC,0.5 µg/mL
same,MIC,[20]; read-out: MIC,0.5 µg/mL
same,MIC,[21]; read-out: MIC,0.25 µg/mL
same,MIC,[22]; read-out: MIC,8 µg/mL
same,MIC,[23]; read-out: MIC,1 µg/mL
same,MIC,[24]; read-out: MIC,1 µg/mL
same,MIC,[25]; read-out: MIC,0.25 µg/mL
same,MIC,[26]; read-out: MIC,0.5 µg/mL
same,MIC,[27]; read-out: MIC,1 µg/mL
same,MIC,[28]; read-out: MIC,0.25 µg/mL
same,MIC,[29]; read-out: MIC,0.25 µg/mL
same,MIC,[30]; read-out: MIC,1 µg/mL
same,MIC,[31]; read-out: MIC,1 µg/mL
same,MIC,[32]; read-out: MIC,4 µg/mL
same,MIC,[33]; read-out: MIC,1 µg/mL
same,MIC,[34]; read-out: MIC,1 µg/mL
same,MIC,[35]; read-out: MIC,0.25 µg/mL
same,MIC,[36]; read-out: MIC,0.5 µg/mL
same,MIC,[37]; read-out: MIC,0.5 µg/mL
same,MIC,[38]; read-out: MIC,1 µg/mL
same,MIC,[39]; read-out: MIC,1 µg/mL
same,MIC,[40]; read-out: MIC,1 µg/mL
"CN(C)c1cc(NC(=O)CNC(C)(C)C)c(O)c2c1C[C@H]1C[C@H]3[C@H](N(C)C)C(O)=C(C(N)=O)C(=O)[C@@]3(O)C(O)=C1C2=O [Tigecycline, reference compound]",MIC,"[1]; Acinetobacter baumannii, C241, read-out: Minimum Inhibitory Concentration (MIC)",2 µg/mL
same,MIC,"[2]; Acinetobacter baumannii, C251, read-out: Minimum Inhibitory Concentration (MIC)",8 µg/mL
same,MIC,"[3]; Acinetobacter baumannii, C279, read-out: Minimum Inhibitory Concentration (MIC)",1 µg/mL
same,MIC,"[4]; Acinetobacter baumannii, C283, read-out: Minimum Inhibitory Concentration (MIC)",1 µg/mL
same,MIC,"[5]; Acinetobacter baumannii, C313, read-out: Minimum Inhibitory Concentration (MIC)",1 µg/mL
same,MIC,"[6]; Acinetobacter baumannii, C315, read-out: Minimum Inhibitory Concentration (MIC)",1 µg/mL
same,MIC,"[7]; Acinetobacter baumannii, C328, read-out: Minimum Inhibitory Concentration (MIC)",1 µg/mL
same,MIC,"[8]; Acinetobacter baumannii, C330, read-out: Minimum Inhibitory Concentration (MIC)",1 µg/mL
same,MIC,"[9]; Acinetobacter baumannii, C332, read-out: Minimum Inhibitory Concentration (MIC)",1 µg/mL
same,MIC,"[10]; Acinetobacter baumannii, C333, read-out: Minimum Inhibitory Concentration (MIC)",1 µg/mL
same,MIC,"[11]; Acinetobacter baumannii, C357, read-out: Minimum Inhibitory Concentration (MIC)",1 µg/mL
same,MIC,"[12]; Acinetobacter baumannii, C390, read-out: Minimum Inhibitory Concentration (MIC)",1 µg/mL
same,MIC,"[13]; Acinetobacter baumannii, C394, read-out: Minimum Inhibitory Concentration (MIC)",1 µg/mL
same,MIC,"[14]; Acinetobacter baumannii, C395, read-out: Minimum Inhibitory Concentration (MIC)",1 µg/mL
same,MIC,"[15]; Acinetobacter baumannii, C401, read-out: Minimum Inhibitory Concentration (MIC)",1 µg/mL
same,MIC,"[16]; Acinetobacter baumannii, C402, read-out: Minimum Inhibitory Concentration (MIC)",1 µg/mL
same,MIC,"[17]; Acinetobacter baumannii, C427, read-out: Minimum Inhibitory Concentration (MIC)",1 µg/mL
same,MIC,Aeruginosa ATCC27853; ATCC27853,8 µg/mL
same,MIC,[18],> 16 µg/mL
same,MIC,[19],8 µg/mL
same,MIC,[20],4 µg/mL
same,MIC,[21],16 µg/mL
same,MIC,[22],> 16 µg/mL
same,MIC,[23],16 µg/mL
same,MIC,[24],4 µg/mL
same,MIC,[25],8 µg/mL
same,MIC,[26],8 µg/mL
same,MIC,[27],16 µg/mL
same,MIC,[28],8 µg/mL
same,MIC,[29],16 µg/mL
same,MIC,[30],16 µg/mL
same,MIC,[31],16 µg/mL
same,MIC,[32],> 16 µg/mL
same,MIC,[33],16 µg/mL
same,MIC,[34],16 µg/mL
same,MIC,[35],8 µg/mL
same,MIC,[36],8 µg/mL
same,MIC,[37],8 µg/mL
same,MIC,[38],16 µg/mL
same,MIC,[39],8 µg/mL
same,MIC,[40],16 µg/mL
